These results are taken from EPA's ToxRefDB 2.

SMILES strings stand for the structures.

The subject of data set [1] is rat. The note with it: Developmental neurotoxicity study; sprague dawley; Injection; Intraperitoneal; dose end: 112 PND; group: cannot be grouped; developmental / developmental malformation / bone / kinked + developmental / offspring survival late / [other] / [other] + reproductive / ….
Data set [2] relates to rat. The note with it: Subchronic oral toxicity in rodents, sprague dawley, Feed, dose end: 90 day.
The test system of data set [3] is rat. The note with it: Combined chronic toxicity/carcinogenicity, sprague dawley, Oral, Feed, dose end: 24 month, group: systemic.
Data set [4] concerns rat. The note with it: Multigenerational reproductive toxicity study, sprague dawley, Oral, Feed, dose end: 2 generation.
Data set [5] relates to rat. The note with it: Prenatal developmental toxicity study, sprague dawley, Oral, Gavage/Intubation, dose end: 15 GD.
Another data set relates to dog. The note with it: Chronic toxicity, beagle, Oral, Capsule, dose end: 12 month, group: systemic.
The mark [6] stands for this setting: group: cholinesterase, cholinesterase / cholinesterase / cholinesterase / cholinesterase (che).
Where [7] appears, read: group: systemic, systemic / hematology / mean corpuscular (cell) volume (mcv) / mean corpuscular (cell) volume (mcv) + systemic / hematology / mean ….
Where [8] appears, read: group: systemic, systemic / organ weight / thyroid gland / absolute.
Where [9] appears, read: systemic / pathology microscopic / kidney / nephropathy + systemic / hematology / hemoglobin (hgb) / hemoglobin (hgb) + systemic / ….
Where [10] appears, read: group: offspring, developmental / offspring survival late / viability index / viability index + systemic / in life observation / body weight / offspring (pup….
Where [11] appears, read: group: parental, systemic / in life observation / body weight / body weight + systemic / in life observation / body weight / body weight gain + systemic / in….
Setting [12] is: group: reproductive, reproductive / offspring survival early / birth index / live birth index.
Where [13] appears, read: group: developmental, developmental / developmental malformation / heart / [other] + developmental / developmental malformation / heart / defect a-v septum.
[14] abbreviates: group: developmental, developmental / developmental malformation / heart / [other] + developmental / developmental malformation / heart / defect a-v septum + ….
Where [15] appears, read: group: maternal, reproductive / reproductive performance / resorptions / resorptions + reproductive / offspring survival early / litter size / litter size + ….
[16] abbreviates: systemic / clinical chemistry / alkaline phosphatase (alp/alk) / alkaline phosphatase (alp/alk) + systemic / organ weight / liver / absolute….

By LOAEL is commonly meant the lowest tested level that showed an adverse finding. A word on the NOAEL: it is the highest tested level that showed no adverse finding.

Take `O=c1[nH]c(=O)n([C@H]2C[C@H](O)[C@@H](CO)O2)cc1Br` [5-Bromo-2'-deoxyuridine]: in the data set with rat [1], the LEL came to 50 mg/kg/day, the LOAEL is more than 100 mg/kg/day, the NEL is less than 50 mg/kg/day and the no observed adverse effect level (NOAEL) was not below 100 mg/kg/day.
Consider `C#CCN1C(=O)COc2cc(F)c(N3C(=O)C4=C(CCCC4)C3=O)cc21` [Flumioxazin], for which the LEL worked out at 218 mg/kg/day with rat [2] (setting [6]); 1.9 mg/kg/day in the data set with rat [2] (setting [8]); 18 mg/kg/day in the data set with rat [3] (systemic / pathology microscopic / kidney / nephropathy + systemic / hematology / hemoglobin (hgb) / hemoglobin (hgb) + systemic / pathology…); 12.7 mg/kg/day in the data set on rat [4] (setting [10]); 12.7 mg/kg/day in the data set with rat [4] (group: parental, systemic / in life observation / body weight / body weight + systemic / organ weight / epididymis / absolute + systemic / organ weight / …); 12.7 mg/kg/day with rat [4] (setting [12]). In addition, the LEL in the data set with rat [5] (setting [13]) is 10 mg/kg/day; with rat [5] (setting [15]), 30 mg/kg/day; in the data set on dog (systemic / organ weight / pituitary gland / absolute + systemic / organ weight / prostate / absolute + systemic / pathology microscopic / …) it was 100 mg/kg/day. The LOAEL with rat [2] (setting [6]) was more than 218 mg/kg/day; in the data set with rat [2] (setting [7]), 22.4 mg/kg/day; in the data set with rat [3] (systemic / pathology microscopic / kidney / nephropathy), 18 mg/kg/day; in the data set on rat [4] (group: offspring, systemic / in life observation / body weight / offspring (pup) weight), 15.1 mg/kg/day; with rat [4] (group: parental, systemic / in life observation / body weight / body weight), 12.7 mg/kg/day; in the data set on rat [4] (setting [12]), 12.7 mg/kg/day. Also, the LOAEL in the data set on rat [5] (setting [13]) is 10 mg/kg/day; with rat [5] (setting [15]), more than 30 mg/kg/day; in the data set with dog (setting [16]), 1000 mg/kg/day. Moreover, the NEL is 72.9 mg/kg/day in the data set with rat [2] (setting [6]); less than 1.9 mg/kg/day in the data set with rat [2] (setting [8]); 1.8 mg/kg/day with rat [3] (setting [9]); 6.3 mg/kg/day with rat [4] (setting [10]); 6.3 mg/kg/day in the data set on rat [4] (setting [11]); 6.3 mg/kg/day in the data set with rat [4] (setting [12]). Further, the NEL in the data set on rat [5] (setting [14]) worked out at 3 mg/kg/day; in the data set on rat [5] (group: maternal, reproductive / reproductive performance / resorptions / resorptions), 10 mg/kg/day; in the data set on dog (setting [16]), 10 mg/kg/day. Further, the NOAEL is not below 218 mg/kg/day in the data set with rat [2] (setting [6]); 2.2 mg/kg/day in the data set with rat [2] (setting [7]); 1.8 mg/kg/day with rat [3] (setting [9]); 7.6 mg/kg/day in the data set on rat [4] (group: offspring, systemic / in life observation / body weight / offspring (pup) weight + developmental / offspring survival late / lactation index / …); 6.3 mg/kg/day with rat [4] (setting [11]); 6.3 mg/kg/day in the data set with rat [4] (setting [12]). In addition, the no observed adverse effect level (NOAEL) is 3 mg/kg/day with rat [5] (setting [14]), not below 30 mg/kg/day in the data set on rat [5] (setting [15]) and 100 mg/kg/day in the data set on dog (setting [16]).
